For orientation: inhibition means the relative decrease from the control value, in per cent.

Data on 54 molecules can be found in ChEMBL document CHEMBL2163249, “Exploration of natural compounds as sources of new bifunctional scaffolds targeting cholinesterases and beta amyloid aggregation: the case of chelerythrine” (Bioorg Med Chem, 2012).

Experiment [1] has as its target Acetylcholinesterase (Electrophorus electricus) (UniProt O42275). The conditions noted are these: at 2 mg/mL.
Description: Inhibition of electric eel AChE at 2 mg/ml by Ellman's method
In experiment [2] the target is Cholinesterase (Equus caballus) (UniProt P81908). The settings on record: at 2 mg/mL.
Chain of Cholinesterase (Equus caballus) (P81908 whole entry): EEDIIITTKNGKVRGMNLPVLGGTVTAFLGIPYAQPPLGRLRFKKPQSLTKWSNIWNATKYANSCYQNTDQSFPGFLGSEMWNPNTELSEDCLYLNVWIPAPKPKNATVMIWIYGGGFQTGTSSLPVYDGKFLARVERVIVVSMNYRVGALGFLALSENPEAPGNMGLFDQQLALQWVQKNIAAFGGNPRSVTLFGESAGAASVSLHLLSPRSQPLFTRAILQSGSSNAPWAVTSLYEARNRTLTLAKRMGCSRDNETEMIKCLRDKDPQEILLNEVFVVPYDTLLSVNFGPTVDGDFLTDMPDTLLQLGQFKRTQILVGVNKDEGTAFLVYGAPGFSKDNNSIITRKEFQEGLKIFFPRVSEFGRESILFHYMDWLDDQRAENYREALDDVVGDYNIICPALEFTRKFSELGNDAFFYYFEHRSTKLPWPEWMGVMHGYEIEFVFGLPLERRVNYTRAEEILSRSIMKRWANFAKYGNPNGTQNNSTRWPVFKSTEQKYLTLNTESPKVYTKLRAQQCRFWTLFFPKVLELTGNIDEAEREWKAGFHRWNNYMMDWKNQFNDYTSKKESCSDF
Description: Inhibition of horse BChE at 2 mg/ml by Ellman's method

Chain of Acetylcholinesterase (Electrophorus electricus) (O42275 24-633 limits assumed): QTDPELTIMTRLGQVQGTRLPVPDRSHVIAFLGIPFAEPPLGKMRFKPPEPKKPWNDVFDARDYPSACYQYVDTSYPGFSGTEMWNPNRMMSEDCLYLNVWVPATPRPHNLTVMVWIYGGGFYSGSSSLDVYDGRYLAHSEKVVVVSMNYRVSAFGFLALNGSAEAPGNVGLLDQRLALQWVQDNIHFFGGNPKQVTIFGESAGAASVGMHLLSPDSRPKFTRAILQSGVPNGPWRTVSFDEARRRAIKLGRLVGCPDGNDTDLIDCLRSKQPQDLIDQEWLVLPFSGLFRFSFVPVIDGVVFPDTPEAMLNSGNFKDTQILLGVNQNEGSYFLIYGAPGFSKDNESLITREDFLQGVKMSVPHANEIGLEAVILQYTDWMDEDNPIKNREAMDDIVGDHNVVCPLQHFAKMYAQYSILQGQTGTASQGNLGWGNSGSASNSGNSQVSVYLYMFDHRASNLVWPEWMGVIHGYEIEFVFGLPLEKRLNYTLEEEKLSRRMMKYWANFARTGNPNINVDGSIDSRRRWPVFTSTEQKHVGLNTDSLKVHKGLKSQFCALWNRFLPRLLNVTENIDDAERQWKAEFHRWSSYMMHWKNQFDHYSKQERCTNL

With `C[C@@H]1O[C@@H](O[C@@H]2[C@@H](O)[C@H](O)[C@@H](CO)O[C@H]2c2c(O)cc(O)c3c(=O)cc(-c4ccc(O)cc4)oc23)[C@H](O)[C@H](O)[C@H]1O`, the inhibition in experiment [1] is 25.9%; in experiment [2] it was -3.3%.
As for `CC(=O)N[C@H]1[C@@H](O[C@@H]2O[C@H](C[C@@H](O)[C@@H]3O[C@H](n4ccc(=O)[nH]c4=O)[C@@H](O)[C@H]3O)[C@H](O)[C@H](O)[C@H]2NC(=O)/C=C/CCCCCCCCCCC(C)C)O[C@H](CO)[C@@H](O)[C@@H]1O`, the results for the inhibition in experiment [1] and in experiment [2] were 14.2% and 1.57%, respectively.
Take `CC(=O)O[C@@H]1CC[C@@]2(C)[C@H](C1)[C@H](OC(C)=O)C[C@@H]1[C@@H]2C[C@H]2[C@@H]3CN4C[C@H](C)CC[C@H]4[C@H](C)[C@H]3CC[C@@]12O`: the inhibition was 26.8% in experiment [1] and 4.14% in experiment [2].
With `O=c1c(O)c(-c2ccccc2)oc2cc(O)cc(O)c12`, the inhibition in experiment [1] came to 6.98%; in experiment [2], 2.59%.
`COc1cc([C@@H]2c3cc4c(cc3[C@@H](O)[C@H]3COC(=O)[C@H]23)OCO4)cc(OC)c1O`: the inhibition is 6.34% in experiment [1] and -7.02% in experiment [2].
Consider `CO[C@@H]1[C@H](OC(=O)/C=C/C=C/C=C/C=C/C(=O)O)CC[C@]2(CO2)[C@H]1[C@@]1(C)O[C@@H]1CC=C(C)C`, for which the inhibition in experiment [1] was -8.57%; in experiment [2], -3.3%.
For the molecule `COc1c2c3c4c(c(OC)c(=O)c5c(O)cc(OC)c(c6c(OC)cc(O)c(c1=O)c63)c54)[C@@H](C(C)=O)[C@@](C)(O)C2` (relative stereo), the inhibition in experiment [1] was determined as 5.56%; in experiment [2], 1.53%.
With `Oc1cc(O)cc(/C=C/c2ccc(O)c(O)c2)c1`, the inhibition came out at 17% in experiment [1] and 2.21% in experiment [2].
Turning to `COc1ccc2ccc(=O)oc2c1CC=C(C)C`, the inhibition in experiment [1] was 3.31%; in experiment [2], -0.19%.
As for `COc1ccc2c3c([nH]c2c1)C(C)=NCC3`, the inhibition in experiment [1] was 40.4%; in experiment [2], 0.63%.
The matching figures for `C[C@@H]1C(=O)O[C@H]2[C@H](O)[C@@]34[C@H]5C[C@@H](C(C)(C)C)[C@]36[C@@H](OC(=O)[C@@H]6O)O[C@@]4(C(=O)O5)[C@@]12O`: -7.35% and 9.99%.
On to `COc1cc(=O)oc(/C=C/C=C/C=C/C(C)=C/[C@@]2(C)O[C@H](C)[C@](C)(O)[C@H]2O)c1C`, for which the inhibition was 27.1% in experiment [1] and 16.6% in experiment [2].
For `CC(C)=CCCC1=CC(=O)c2c(O)ccc(O)c2C1=O`, the inhibition was 1.52% in experiment [1] and -2.66% in experiment [2].
Regarding `CC1=C2C(=CO[C@H](C)[C@H]2C)C(O)=C(C(=O)O)C1=O`, the inhibition in experiment [1] is 3.11%; in experiment [2], 11.3%.
In the case of `C[N+]1([O-])[C@@H]2CC[C@H]1C[C@H](OC(=O)C(CO)c1ccccc1)C2` (stereo partly drawn), the results for the inhibition in experiment [1] and in experiment [2] were 25.9% and -2.78%, respectively.
The matching figures for `C[C@]12CC[C@H](O)C[C@H]1CC[C@@H]1[C@@H]2CC[C@]2(C)[C@@H](C3=CC(=O)OC3)[C@@H](O)C[C@]12O`: -1.84% and 1.77%.
With `C=C(C)[C@@H]1CC=C(C(=O)O)CC1`, the results for the inhibition in experiment [1] and in experiment [2] were -3.9% and 3.58%, respectively.
As to `O=c1cc(-c2ccc(O)c(O)c2)oc2cc(O)c([C@@H]3O[C@H](CO)[C@@H](O)[C@H](O)[C@H]3O)c(O)c12`, the inhibition in experiment [1] is 23.9%; in experiment [2] it was -4.72%.
Take `CC(=O)O[C@H]1C(=O)[C@@]2(C)[C@H]([C@H](OC(=O)c3ccccc3)[C@]3(O)C[C@H](O)C(C)=C1C3(C)C)[C@]1(OC(C)=O)CO[C@@H]1C[C@@H]2O`: the inhibition turned out to be 27.8% in experiment [1] and 5.3% in experiment [2].
For `CCCCC[C@H](O)CC(=O)CCc1ccc(O)c(OC)c1`, the inhibition in experiment [1] is 1.06%; in experiment [2], -2.06%.
The matching figures for `CC(C)=CC[C@@H](OC(=O)C=C(C)C)C1=CC(=O)c2c(O)ccc(O)c2C1=O`: 22.8% and 6.03%.
In the case of `CC1=C2[C@H]3OC(=O)[C@@H](C)[C@@H]3CC[C@@]2(C)C=CC1=O`, the inhibition in experiment [1] is 3.63%; in experiment [2], -3.62%.
In the case of `CN1[C@@H]2CC[C@H]1C[C@@H](OC(=O)C(CO)c1ccccc1)C2` (stereo partly drawn), the inhibition in experiment [1] was 15.2%; in experiment [2] it was 4.01%.
`CN1[C@@H]2CC[C@H]1C[C@H](O)C2`: the figures for the inhibition in experiment [1] and in experiment [2] were 1.27% and -9.24%, respectively.
The matching figures for `COc1cc(/C=C/C(=O)c2ccc(O)cc2O)ccc1O`: 26.5% and -0.11%.
Turning to `COC(=O)[C@@H]1[C@H]2C[C@H]3c4[nH]c5ccccc5c4CCN3C[C@@H]2CC[C@@H]1O`, the inhibition in experiment [1] was 16.2%; in experiment [2], -2.5%.
For the molecule `CCCC(=O)O[C@@H]1[C@@H](C)[C@@]2(O)[C@@H](C=C(CO)C[C@]3(O)C(=O)C(C)=C[C@@H]23)[C@@H]2C(C)(C)[C@]12OC(=O)CCC` (stereo in doubt; form 2), the inhibition came to 19.5% in experiment [1] and 5.87% in experiment [2].
The matching figures for `CCC1=C[C@@H]2CN(C1)Cc1c([nH]c3ccccc13)[C@@](C(=O)OC)(c1cc3c(cc1OC)N(C)[C@H]1[C@@](O)(C(=O)OC)[C@H](OC(C)=O)[C@]4(CC)C=CCN5CC[C@]31[C@@H]54)C2`: -0.32% and 12.2%.
On to `CN1[C@H]2C[C@H](OC(=O)[C@H](CO)c3ccccc3)C[C@@H]1[C@@H](O)C2`, for which the inhibition in experiment [1] worked out at 9.43%; in experiment [2], 8.08%.
For `O=C(/C=C/c1ccc(O)c(O)c1)O[C@@H]1C[C@](O)(C(=O)O)C[C@@H](O)[C@H]1O`, the inhibition in experiment [1] is 10.8%; in experiment [2] it was 4.8%.
For the molecule `CC1=CC(=O)C2=C(C)C[C@H](O)[C@@H]3[C@H](OC(=O)[C@H]3C)[C@@H]12`, the inhibition was 29.5% in experiment [1] and 2.68% in experiment [2].
Take `O=C1C[C@@H](c2ccc(O)cc2)Oc2cc(O)cc(O)c21`: the inhibition in experiment [1] stood at 7.24%; in experiment [2], 0.68%.
Take `COc1cc2c(c(OC)c1OC)-c1c(cc(OC)c(OC)c1OC)C[C@H](C)[C@H](C)C2`: the results for the inhibition in experiment [1] and in experiment [2] were -1.7% and -4.82%, respectively.
The matching figures for `CO[C@H]1[C@H](O)[C@H](O[C@H]2CC[C@@]3(C=O)[C@H](CC[C@@H]4[C@@H]3CC[C@]3(C)[C@@H](C5=CC(=O)OC5)CC[C@]43O)C2)O[C@@H](C)[C@@H]1O`: 4.45% and -1.96%.
On to `Cc1cccc2c3c(ccc12)C1=C(C(=O)C3=O)[C@@H](C)CO1`, for which the inhibition in experiment [1] is 3.53%; in experiment [2], -3.19%.
For `COc1ccc(C[C@H]2NC[C@H](O)[C@H]2OC(C)=O)cc1`, the values for the inhibition in experiment [1] and in experiment [2] were -1.2% and -3.31%, respectively.
The matching figures for `CN[C@@H]1[C@H](O)[C@H](NC)[C@H]2O[C@@]3(O)C(=O)C[C@@H](C)O[C@H]3O[C@@H]2[C@H]1O`: 15% and -9.67%.
With `O=C(O)/C=C/c1ccc(O)c(O)c1`, the results for the inhibition in experiment [1] and in experiment [2] were 2.2% and 0.67%, respectively.
The matching figures for `CC(C)=CCC/C(C)=C/COc1ccc2ccc(=O)oc2c1`: -3.79% and 1.5%.
For `CO[C@H]1[C@@H](O)[C@@H](C)O[C@H](O[C@H]2[C@H](Oc3cccc4c(O)c5c(=O)oc6ccc(C)c7c(=O)oc(c34)c5c67)O[C@H](C)[C@H](O)[C@@H]2O)[C@@H]1O`, the results for the inhibition in experiment [1] and in experiment [2] were 17.5% and 7.94%, respectively.
For `O=C(O)c1cc(N(Cc2ccccc2O)Cc2ccccc2O)ccc1O`, the inhibition was found to be 2.48% in experiment [1] and 1.67% in experiment [2].
Turning to `CCOC(=O)C1=C[C@]2(CC)CCCN3CCc4c(n1c1ccccc41)[C@@H]32`, the figures for the inhibition in experiment [1] and in experiment [2] were 12.3% and 29.1%, respectively.
The matching figures for `C[C@@H]1O[C@@H](O[C@H]2C[C@@H](O)[C@]3(CO)[C@H]4[C@H](O)C[C@]5(C)[C@@H](C6=CC(=O)OC6)CC[C@]5(O)[C@@H]4CC[C@]3(O)C2)[C@H](O)[C@H](O)[C@H]1O`: -3.72% and 5.11%.
As for `COc1cc2c(cc1O)C[C@H]1c3c(cc(O)c(OC)c3-2)CCN1C`, the inhibition in experiment [1] came to 9.51%; in experiment [2] it was 1.24%.
Consider `CN1c2ccccc2C(=O)N2CCc3c([nH]c4ccccc34)[C@@H]21`, for which the inhibition in experiment [1] was found to be 12.4%; in experiment [2] it was 26%.
Turning to `O=c1c(-c2ccc(O)cc2)coc2cc(O)ccc12`, the inhibition is -3.93% in experiment [1] and 0.02% in experiment [2].
Turning to `O=c1cc(-c2ccc(O)c(O)c2)oc2cc(O)cc(O)c12`, the inhibition came out at 13.6% in experiment [1] and 0.42% in experiment [2].
Take `O=c1cc(-c2ccccc2)oc2cc(O)c(O)c(O)c12`: the inhibition in experiment [1] is -3.74%; in experiment [2] it was 15%.
The matching figures for `CO[C@H]1C[C@@H]2CC[C@@H](C)[C@@](O)(O2)C(=O)C(=O)N2CCCC[C@H]2C(=O)O[C@H]([C@H](C)C[C@@H]2CC[C@@H](O)[C@H](OC)C2)CC(=O)[C@H](C)/C=C(\C)[C@@H](O)[C@@H](OC)C(=O)[C@H](C)C[C@H](C)/C=C/C=C/C=C/1C`: 18.7% and 4.03%.
The matching figures for `COC1=CC(=O)O[C@@H](/C=C/c2ccc3c(c2)OCO3)C1`: -4.34% and 0.15%.
Consider `CCN1C[C@]2(COC)CC[C@H](OC)[C@]34C1[C@H]([C@H](OC)[C@H]23)[C@@]1(OC(C)=O)C[C@H](OC)[C@@]2(O)C[C@@H]4[C@@H]1[C@H]2C(=O)c1ccc(OC)cc1`, for which the values for the inhibition in experiment [1] and in experiment [2] were 3.52% and 9.36%, respectively.
For `c1coc(CNc2ncnc3[nH]cnc23)c1`, the inhibition is -5.12% in experiment [1] and 3.13% in experiment [2].
`O=c1cc(-c2ccc(O)cc2)oc2cc(O)cc(O)c12`: the inhibition in experiment [1] came out at 18.4%; in experiment [2] it was 4.5%.
Take `COc1cc(C2Oc3cc([C@H]4Oc5cc(O)cc(O)c5C(=O)[C@@H]4O)ccc3OC2CO)ccc1O` (stereo partly drawn): the values for the inhibition in experiment [1] and in experiment [2] were 7.08% and -7.94%, respectively.
